Measured values from patent US20220378791A1, “JAK1 INHIBITORS FOR THE TREATMENT OF MYELODYSPLASTIC SYNDROMES” (Incyte Corporation, priority 2014, published 2022).

Legend:
MDS patients [1] = settings: study of 14 MDS patients; cited from earlier work
MDS patients [2] = settings: 83 patients enrolled, 51 completed 12 weeks of therapy; cited from earlier work
[3] = target: T1, human JAK1 (a.a. 837-1142) (Homo sapiens, UniProt P23458); test: In vitro JAK kinase assay (HTRF), JAK1; assay type: biochemical; settings: 1 mM ATP
T1 construct: human JAK1 (a.a. 837-1142); His tag (N); made in house; host or cells: insect cells (baculovirus)
Procedure: Compounds herein were tested for inhibitory activity of JAK targets according to the following in vitro assay described in Park et al., Analytical Biochemistry 1999, 269, 94-104. The catalytic domains of human JAK1 (a.a. 837-1142), JAK2 (a.a. 828-1132) and JAK3 (a.a. 781-1124) with an N-terminal His tag were expressed using baculovirus in insect cells and purified. The catalytic activity of JAK1, JAK2 or JAK3 was assayed by measuring the phosphorylation of a biotinylated peptide. The phosphorylated peptide was detected by homogenous time resolved fluorescence (HTRF). […] Reactions were carried out at room temperature for 1 hour and then stopped with 20 μL 45 mM EDTA, 300 nM SA-APC, 6 nM Eu-Py20 in assay buffer (Perkin Elmer, Boston, Mass.). Binding to the Europium labeled antibody took place for 40 minutes and HTRF signal was measured on a Fusion plate reader (Perkin Elmer, Boston, Mass.).

[4] = target: T2, human JAK2 (a.a. 828-1132) (Homo sapiens, UniProt O60674); test: In vitro JAK kinase assay (HTRF), JAK2; assay type: biochemical; settings: IC50 ratio, selectivity for JAK1 over JAK2, 1 mM ATP
T2 construct: JAK2 (a.a. 828-1132); His tag (N); made in house; host or cells: insect cells (baculovirus)
Procedure: Compounds herein were tested for inhibitory activity of JAK targets according to the following in vitro assay described in Park et al., Analytical Biochemistry 1999, 269, 94-104. The catalytic domains of human JAK1 (a.a. 837-1142), JAK2 (a.a. 828-1132) and JAK3 (a.a. 781-1124) with an N-terminal His tag were expressed using baculovirus in insect cells and purified. The catalytic activity of JAK1, JAK2 or JAK3 was assayed by measuring the phosphorylation of a biotinylated peptide. The phosphorylated peptide was detected by homogenous time resolved fluorescence (HTRF). […] Reactions were carried out at room temperature for 1 hour and then stopped with 20 μL 45 mM EDTA, 300 nM SA-APC, 6 nM Eu-Py20 in assay buffer (Perkin Elmer, Boston, Mass.). Binding to the Europium labeled antibody took place for 40 minutes and HTRF signal was measured on a Fusion plate reader (Perkin Elmer, Boston, Mass.). See Table 2 for data for compounds of the examples as tested by the assay of Example A at 1 mM ATP.

T2 sequence (O60674 828-1132): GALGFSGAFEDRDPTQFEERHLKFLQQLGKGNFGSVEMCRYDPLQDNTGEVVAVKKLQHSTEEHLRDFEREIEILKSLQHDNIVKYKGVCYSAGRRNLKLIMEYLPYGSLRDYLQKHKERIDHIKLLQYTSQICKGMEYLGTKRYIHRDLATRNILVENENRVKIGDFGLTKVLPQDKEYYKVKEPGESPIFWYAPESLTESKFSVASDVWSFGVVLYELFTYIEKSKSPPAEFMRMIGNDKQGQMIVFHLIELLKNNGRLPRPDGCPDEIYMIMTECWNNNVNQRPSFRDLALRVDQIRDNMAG
T1 sequence (P23458 849-1154): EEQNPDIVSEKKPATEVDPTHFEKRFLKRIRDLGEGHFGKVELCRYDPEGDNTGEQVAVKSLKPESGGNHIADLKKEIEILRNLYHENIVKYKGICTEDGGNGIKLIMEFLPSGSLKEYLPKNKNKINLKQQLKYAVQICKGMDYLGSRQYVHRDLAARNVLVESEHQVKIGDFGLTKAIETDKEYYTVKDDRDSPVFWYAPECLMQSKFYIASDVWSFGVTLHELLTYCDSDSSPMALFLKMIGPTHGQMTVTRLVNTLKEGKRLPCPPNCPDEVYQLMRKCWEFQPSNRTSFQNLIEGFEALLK

Molecule | IC50 [3] | JAK2/JAK1 [4] | further results
etanercept |  |  | erythroid hematologic improvement (MDS patients [1]): 25 % of patients; improvement in platelet counts and ANC (MDS patients [1]): 12.5 % of evaluable patients
O=C1CCC(N2C(=O)c3ccccc3C2=O)C(=O)N1 (centres unmarked) [thalidomide] |  |  | patients showed hematologic improvement (MDS patients [2]): 16 patients; previously transfusion-dependent patients becoming transfusion independent (MDS patients [2]): 10 patients
N#CCC1(n2cc(-c3ncnc4[nH]ccc34)cn2)CN([C@H]2CC[C@@H](Oc3cc(CCO)nc(C(F)(F)F)n3)CC2)C1 [Example 16, {1-(cis-4-{[6-(2-hydroxyethyl)-2-(trifluoromethyl)pyrimidin-4-yl]oxy}cyclohexyl)-3-[4-(7H-pyrrolo[2,3-d]pyrimidin-4-yl)-1H-pyrazol-1-yl]azetidin-3-yl}acetonitrile] | < 10 nM | >10 | 
N#CCC(C1CCN(c2cccc(Cl)n2)C1)n1cc(-c2ncnc3[nH]ccc23)cn1 (single isomer, unassigned) [Example 1, 3-[1-(6-chloropyridin-2-yl)pyrrolidin-3-yl]-3-[4-(7H-pyrrolo[2,3-d]pyrimidin-4-yl)-1H-pyrazol-1-yl]propanenitrile] | < 10 nM | >10 | 

Further lines, with some results ahead:

IC50 [3] | JAK2/JAK1 [4] | Molecule | further results
< 10 nM | >10 | N#CCC1(n2cc(-c3ncnc4[nH]ccc34)cn2)CN(C2CCN(C(=O)Nc3ccc(F)cc3C(F)(F)F)CC2)C1 [Example 6, 4-{3-(Cyanomethyl)-3-[4-(7H-pyrrolo[2,3-d]pyrimidin-4-yl)-1H-pyrazol-1-yl]azetidin-1-yl}-N-[4-fluoro-2-(trifluoromethyl)phenyl]piperidine-1-carboxamide] | 
< 10 nM | >10 | N#CCC(C1CCN(c2nc3cccnc3o2)C1)n1cc(-c2ncnc3[nH]ccc23)cn1 (single isomer, unassigned) [Example 2, 3-(1-[1,3]oxazolo[5,4-b]pyridin-2-ylpyrrolidin-3-yl)-3-[4-(7H-pyrrolo[2,3-d]pyrimidin-4-yl)-1H-pyrazol-1-yl]propanenitrile] | 
< 10 nM | >10 | N#CCC1(n2cc(-c3ncnc4[nH]ccc34)cn2)CN(C2CCN(C(=O)c3ccnc(C(F)(F)F)c3F)CC2)C1 [Example 5, {1-{1-[3-Fluoro-2-(trifluoromethyl)isonicotinoyl]piperidin-4-yl}-3-[4-(7H-pyrrolo[2,3-d]pyrimidin-4-yl)-1H-pyrazol-1-yl]azetidin-3-yl}acetonitrile] | 
